pIC50: −log10 of the molar value.
System: 874868-142-R-J2-PDC complex spheroids, growth % test/control
Assay: Anticancer human tumor 874868-142-R-J2-PDC patient-derived head and neck squamous carcinoma cell line growth inhibition [CLK]
Details: for pIC50: curve of first compound; for viability, T/C: stronger effect = lower value; active = viability on the fitted dose curve at most 10% of control; inactive = the rest
Excerpt: A high-throughput screen of multi-cell type tumor spheroids was designed to identify active combinations of […] and targeted small molecules. Complex spheroids include a stromal component modeled by human endothelial cells (HUVEC) and fibroblasts modeled by human mesenchymal stem cells (MSCs). The concentration ranges selected for each drug and investigational agent were based upon clinically achievable concentrations if the clinical Cmax of the agent was known.
Compounds. The drugs and investigational agents: cirtuvivint (SM08502; NSC835563), CC-671 (NSC850746), vemurafenib (NSC761431), tapotoclax (NSC804041), sotorasib (NSC818433), adagrasib (NSC831453), MRTX-1133 (NSC836407), BAY2416964 (NSC825713), copanlisib (NSC816437), inavolisib (NSC800729), abemaciclib (NSC768073), osimertinib (NSC779217), entinostat (NSC756642), eltanexor (KPT-8602, NSC794443), venetoclax (NSC766270), ceralasertib (NSC777638), bortezomib (NSC756655), olaparib (NSC753686), talazoparib (NSC767125), alisertib (NSC759677), peposertib (NSC802822), gemcitabine (NSC613327), 5-fluorouracil (NSC19893), SN-38 (NSC673596), oxaliplatin (NSC266046), paclitaxel (NSC125973), and doxorubicin (NSC123127), were obtained from the National Cancer Institute (NCI) Developmental Therapeutics Program Chemical Repository. The FDA-approved anticancer drug set is available from the Developmental Therapeutics Program at https://dtp.cancer.gov/organization/dscb/obtaining/available plates.htm. […] The stock solutions were prepared in dimethyl sulfoxide (DMSO, Sigma-Aldrich, St. Louis, MO, cat. D2650), except for the platinum complexes which were prepared in saline (Quality Biological, Gaithersburg, MD, cat. 114-055-101), at 800-fold the tested concentration and stored at -70 degrees C prior to their use. All drugs and investigational agents were tested over a range starting from a high concentration at or near the clinical Cmax and decreasing in half-log increments. If the clinical Cmax for an agent had not been determined, the highest concentration tested was 10 microM.
Cell Culture. All cells were maintained in an incubator at 37 degrees C and 5% CO2 with 95% humidity. The PDC lines were cultured according to standard operating procedures established by the NCI PDMR. Briefly, all PDCs were thawed and cultured in Matrigel-coated flasks prepared with a working solution of 1X Ham's F-12 nutrient mix, without supplementation (Invitrogen, Waltham, MA, cat. 11765054), 100 U/mL penicillin-streptomycin (Invitrogen, cat. 15140122), and 2.5% Matrigel (Corning Inc., Corning, NY, cat. 354248) for the first three passages. The 947758-054-R-J2-PDC line was cultured in 6B/Colon 1A media, which includes advanced DMEM/F-12 (Thermo Fisher Scientific, cat. 12634028), 10 mM HEPES (Thermo Fisher Scientific, cat. 15630080), 1X GlutaMAX supplement (Thermo Fisher Scientific, cat. 35050061), 0.1 mg/mL primocin (InvivoGen, cat. ant-pm-2), 10% defined fetal bovine serum, heat inactivated (HyClone Laboratories Inc., cat. SH30070.03HI), 1.25 mM N-Acetyl-L-cysteine (Sigma-Aldrich, cat. A9165), 10 mM nicotinamide (Sigma-Aldrich, cat. N0636), 1X B-27 supplement (Thermo Fisher Scientific, cat. 17504044), 1X N-2 supplement (Thermo Fisher Scientific, cat. 17502048), and 10 microM Y-27632 dihydrochloride (Tocris Bioscience, cat. 1254). The 876862-298-R-J1-PDC was cultured in 6E media, which includes all 6B/Colon 1A media components plus 50% L-WRN conditioned media (ATCC, cat. CRL-3276), 50 ng/mL recombinant human EGF recombinant protein (hEGF; Thermo Fisher Scientific, cat. PHG0311), 10 ng/mL recombinant human fibroblast growth factor 10 (hGFG-10; PeproTech, cat. 100-26), 1 ng/mL recombinant human fibroblast growth factor 2 (hFGF-2; PeproTech, cat. 100-18B), and 1 µM prostaglandin E2 (PGE2; Tocris, cat. 2296). The 227483-062-R1-J1-PDC line was cultured in Panc media, containing all 6E components except hFGF-2, with the addition of 500 nM SB-431542 (Selleckchem, cat. S1067) and 10 nM gastrin (Tocris, cat. 3006). […]

[1] = second compound 0.0316 µM, first compound 0.0316 µM
[2] = second compound 0.0316 µM, first compound 0.1 µM
[3] = second compound 0.0316 µM, first compound 0.316 µM
[4] = second compound 0.0316 µM, first compound 1 µM
[5] = second compound 0.1 µM, first compound 0.0316 µM
[6] = second compound 0.1 µM, first compound 0.1 µM
[7] = second compound 0.1 µM, first compound 0.316 µM
[8] = second compound 0.1 µM, first compound 1 µM
[9] = second compound 0.316 µM, first compound 0.0316 µM
[10] = second compound 0.316 µM, first compound 0.1 µM
[11] = second compound 0.316 µM, first compound 0.316 µM
[12] = second compound 0.316 µM, first compound 1 µM
[13] = second compound 1 µM, first compound 0.0316 µM
[14] = second compound 1 µM, first compound 0.1 µM
[15] = second compound 1 µM, first compound 0.316 µM
[16] = second compound 1 µM, first compound 1 µM
[17] = second compound 3.16 µM, first compound 0.0316 µM
[18] = second compound 3.16 µM, first compound 0.1 µM
[19] = second compound 3.16 µM, first compound 0.316 µM
[20] = second compound 3.16 µM, first compound 1 µM
[21] = second compound 10 µM, first compound 0.0316 µM
[22] = second compound 10 µM, first compound 0.1 µM
[23] = second compound 10 µM, first compound 0.316 µM
[24] = second compound 10 µM, first compound 1 µM
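Also: spheroids exposed to the compounds for 7 days.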

CC(CO)NC(=O)c1cc(-c2ccc(Cl)cc2)nn(-c2cnn(C)c2)c1=O (centres undefined) + CN1CCN(c2cc(C(=O)Nc3cc4cc(-c5cnn(C)c5)ccc4cn3)ccn2)CC1
inactive: viability, T/C [1] 105% | viability, T/C [2] 99.2% | viability, T/C [3] 82.4% | viability, T/C [4] 92.8% | viability, T/C (second compound 0.0316 µM, first compound 3.16 µM) 93% | viability, T/C (second compound 0.0316 µM, first compound 10 µM) 83.8% | viability, T/C [5] 76.1% | viability, T/C [6] 72.2% | viability, T/C [7] 65.8% | viability, T/C [8] 67.9% | viability, T/C (second compound 0.1 µM, first compound 3.16 µM) 68.5% | viability, T/C (second compound 0.1 µM, first compound 10 µM) 77.2% | viability, T/C [9] 19.4% | viability, T/C [10] 24.8% | viability, T/C [11] 20.6% | viability, T/C [12] 19.1% | viability, T/C (second compound 0.316 µM, first compound 3.16 µM) 20.2% | viability, T/C (second compound 0.316 µM, first compound 10 µM) 29.1%
> 7.50: pIC50 (second compound 0.316 µM) | pIC50 (second compound 1 µM) | pIC50 (second compound 3.16 µM) | pIC50 (second compound 10 µM)
< 5.00: pIC50 (second compound 0.0316 µM) | pIC50 (second compound 0.1 µM)
active: viability, T/C [13] 0.42% | viability, T/C [14] 5.08% | viability, T/C [15] 2.66% | viability, T/C [16] 0.31% | viability, T/C (second compound 1 µM, first compound 3.16 µM) 0.63% | viability, T/C (second compound 1 µM, first compound 10 µM) 1.19% | viability, T/C [17] 0.31% | viability, T/C [18] 0.77% | viability, T/C [19] 0.29% | viability, T/C [20] 0.32% | viability, T/C (second compound 3.16 µM, first compound 3.16 µM) 3.04% | viability, T/C (second compound 3.16 µM, first compound 10 µM) 2.75% | viability, T/C [21] 0.18% | viability, T/C [22] 0.21% | viability, T/C [23] 2.19% | viability, T/C [24] 0.22% | viability, T/C (second compound 10 µM, first compound 3.16 µM) 3.03% | viability, T/C (second compound 10 µM, first compound 10 µM) 0.28%

COc1c(OCCCN2CCOCC2)ccc2c3n(c(=NC(=O)c4cnc(N)nc4)nc12)CCN3 + CN1CCN(c2cc(C(=O)Nc3cc4cc(-c5cnn(C)c5)ccc4cn3)ccn2)CC1
> 8.50: pIC50 (second compound 0.316 µM) | pIC50 (second compound 1 µM) | pIC50 (second compound 3.16 µM) | pIC50 (second compound 10 µM)
active: viability, T/C [3] 5.06% | viability, T/C [4] 3.88% | viability, T/C [7] 5.07% | viability, T/C [8] 5.77% | viability, T/C [10] 4.09% | viability, T/C [11] 3.08% | viability, T/C [12] 1.68% | viability, T/C (second compound 1 µM, first compound 0.00316 µM) 0.4% | viability, T/C (second compound 1 µM, first compound 0.01 µM) 0.24% | viability, T/C [13] 0.24% | viability, T/C [14] 0.07% | viability, T/C [15] 0.34% | viability, T/C [16] 0.22% | viability, T/C (second compound 3.16 µM, first compound 0.00316 µM) 0.17% | viability, T/C (second compound 3.16 µM, first compound 0.01 µM) 0.16% | viability, T/C [17] 0.17% | viability, T/C [18] 0.36% | viability, T/C [19] 0.16% | viability, T/C [20] 0.19% | viability, T/C (second compound 10 µM, first compound 0.00316 µM) 0.07% | viability, T/C (second compound 10 µM, first compound 0.01 µM) 0.15% | viability, T/C [21] 1.27% | viability, T/C [22] 0.4% | viability, T/C [23] 0.14% | viability, T/C [24] 0.18%
8.13: pIC50 (second compound 0.0316 µM)
8.24: pIC50 (second compound 0.1 µM)
inactive: viability, T/C (second compound 0.0316 µM, first compound 0.00316 µM) 66.7% | viability, T/C (second compound 0.0316 µM, first compound 0.01 µM) 44.8% | viability, T/C [1] 21.2% | viability, T/C [2] 11.6% | viability, T/C (second compound 0.1 µM, first compound 0.00316 µM) 57.3% | viability, T/C (second compound 0.1 µM, first compound 0.01 µM) 42.7% | viability, T/C [5] 23.6% | viability, T/C [6] 9.84% | viability, T/C (second compound 0.316 µM, first compound 0.00316 µM) 19.1% | viability, T/C (second compound 0.316 µM, first compound 0.01 µM) 18.6% | viability, T/C [9] 10.7%
